Measurements as given in patent US12203060B1, “Cell culture” (FIBROFIND IP LIMITED, priority 2015, dated 2025).

Experiments:
[1] = tested on: precision cut liver slices (PCLS); experiment: Albumin production by precision cut liver slices cultured on CMR2 (albumin ELISA); assay type: cell-based; conditions: PCLS on CMR2, fat, fat+LPS or BSA vehicle for 48 h after a 24 h rest period; FIG. 27
Description: (§1) Liver tissue was placed in a 10 cm dish containing Hanks Buffered Saline Solution (HBSS+, Lonza, BE10-508F). Four to eight mm cores of liver tissue were made using a Stiefel Biopsy Punch. Cores were then transferred to a metal mould and submerged in 2.5-3.0% low gelling temperature agarose (Sigma, A9414) and then placed on ice for 2-5 minutes.
(§2) Once set, the cores in agarose were super-glued to a vibratome mounting stage and submersed in the media chamber in ice cold HBSS+prior to cutting on a Leica VT1200 S fully automated vibrating blade microtome. Liver tissue cores were cut at a speed of 0.3 mm/see, and an amplitude 2 mm and thickness (step size) of 250 μm. Slices having a thickness of between 200-400 μm can be used.
Slices were transferred to 3 μm, 8 μm or 100 μm pore inserts provided in static (Griener) or CMR tissue culture plates. […]
100 μl of the slice culture media diluted 1:250 was removed from wells comprising slices in either a static culture plate, a unidirectional system or the CMR culture plate apparatus which was rocked using a rocking apparatus as described herein. The media was used to quantify albumin release using the Rat Albumin ELISA Quantitation Set (catalogue number E110-125) or Human Albumin ELISA Quantitation Set (catalogue number E80-129) following manufacturer's instructions.

[2] = tested on: precision cut liver slices (PCLS); experiment: Expression of fibrosis genes in precision cut liver slices cultured on CMR2; assay type: cell-based; conditions: for expression of fibrosis genes (pro-collagen 1, aSMA, TIMP1): PCLS on CMR2, stimulated for 72 h after a 24 h rest period, FIG. 31
Description: as §1, §2
Slices were transferred to 3 μm, 8 μm or 100 μm pore inserts provided in static (Griener) or CMR tissue culture plates. The CMR tissue culture plates of embodiments of the invention comprised either holes between adjacent wells or were rapid prototyped from CAD design to comprise slots between wells. The wells contained slice culture media. The slices were cultured under static, unidirectional or rocked conditions at 37° C. in 5% carbon dioxide in a humidified tissue culture incubator. Twelve or twenty-four well CMR tissue culture plates were used, as indicated.
The slice culture media comprised the following components: • Williams Medium E (Sigma, W4128) • 2% Heat Inactivated Fetal Bovine Serum (Gibco) • Penicillin-Streptomycin (Sigma, P0781) • L-glutamine (Sigma, G7513) • Pyruvate (Sigma, S8636) • 0.5 uM Insulin/transferrin selenium mix (Gibco 51500-056) • 0.1 uM dexamethasone (Sigma, D4902) Urea Assay (Universal Biologicals Cambridge)

[3] = PCLS on CMR2, 3 ng/ml TGFb1 for 48 h, compared to control (untreated), FIG. 26B

Molecule: Lipopolysaccharide [LPS]
- albumin production [1]: did not affect

Molecule: transforming growth factor beta 1 [TGFb1]
- expression of the fibrosis gene alpha-smooth muscle actin (aSMA) [2, 3]: induced expression
- expression of the fibrosis gene collagen I [2, 3]: induced expression
- expression of the fibrosis gene tissue inhibitor of metalloprotease 1 (TIMP1) [2, 3]: induced expression

Molecule: transforming growth factor beta [TGFb]
- expression of fibrosis genes (pro-collagen 1, aSMA, TIMP1) [2]: induce expression

B1: platelet derived growth factor b (protein, UniProt P01127 82-190, looked up)
Platelet-derived growth …: SLGSLTIAEPAMIAECKTRTEVFEISRRLIDRTNANFLVWPPCVEVQRCSGCCNNRNVQCRPTQVQLRPVQVRKIEIVRKKPIFKKATVTLEDHLACKCETVAAARPVT
modifications: homodimer
notes: fibrosis-stimulating factor added to liver slices
- expression of fibrosis genes (pro-collagen 1, aSMA, TIMP1) [2]: induce expression
